Measured values: patent publication US20240408170A1, “COMPOSITION FOR DECOMPOSITION OF TRYPSIN OR TMPRSS2” (Riken, priority 2021, published 2024)

Assays:
recombinant mouse PRSS2 [1] = target: T1, recombinant mouse PRSS2 (Mus musculus, UniProt P07146); experiment: Trypsin decomposition in vitro by bacteria (western blot); assay type: biochemical; conditions: for trypsin-decomposing ability of P. clara (1C4) after pretreating rmPRSS2 with protease inhibitor: rmPRSS2 pretreated 30 minutes with inhibitor; for decomposition of rmPRSS2 (western blot): bacteria or culture supernatant incubated with recombinant mouse trypsin
T1 construct: purchased Sino Biological, Inc. 50383-M08H
T1 sequence (P07146 24-246): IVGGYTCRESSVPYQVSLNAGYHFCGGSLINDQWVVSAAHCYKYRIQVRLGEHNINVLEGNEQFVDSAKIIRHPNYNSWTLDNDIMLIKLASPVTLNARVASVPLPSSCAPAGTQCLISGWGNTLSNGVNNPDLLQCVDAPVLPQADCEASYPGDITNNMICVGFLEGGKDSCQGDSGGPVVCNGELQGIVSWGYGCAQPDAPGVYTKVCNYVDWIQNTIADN
Description: Mouse faecal samples were suspended and diluted 50-fold with phosphate buffered saline (PBS) to which a protease inhibitor cocktail (Roche) was added. Subsequently, the suspended sample was centrifuged at 15,000×g for 10 minutes at 4° C., and the supernatant was subjected to western blot. Mouse pancreatic tissue was rapidly frozen in liquid nitrogen. Proteins were extracted by TRIzol Reagent (Thermo Fisher Scientific K.K.), and the final protein concentration was adjusted to 4 μg/μL. For SDS-PAGE and blotting, Novex (registered trademark) NuPAGE (registered trademark) SDS-PAGE Gel system (Thermo Fisher Scientific K.K.) and iBlot™ 2 Dry Blotting System (Thermo Fisher Scientific K.K.) were used according to the manufacturer's instructions.
The bacteria cultured overnight were incubated with recombinant mouse trypsin (final concentration: 1 μg/mL) for 1 hour or with human trypsin (final concentration: 20 μg/mL) for 4 hours. Recombinant trypsin isoforms used were as follows: recombinant mouse PRSS2 (50383-M08H, Sino Biological, Inc.), recombinant human PRSS1 (LS-G135640), recombinant human PRSS2 (LS-G20167), and recombinant human PRSS3 (His-tag) (NBP2-52220).
In some experiments, recombinant mouse PRSS2 was first treated with one of the following trypsin inhibitors for 30 minutes before incubation with a P. clara culture solution. AEBSF (Sigma-Aldrich, final concentration: 2 mM), Leupeptin (Sigma-Aldrich, final concentration: 100 μM), and TLCK (Abcam plc., final concentration: 100 μM).
In some experiments, P. clara was cultured overnight in the presence of Tunicamycin (Sigma-Aldrich, final concentration: 10 μg/mL), 2-Fluoro-L-fucose (Cayman Chemical Company, final concentration: 250 μM), or the corresponding DMSO control, before incubation with recombinant mouse PRSS2.
In the experiment of evaluating the effect of Ca^2+, P. clara was cultured in a low Ca^2+ mGAM medium supplemented with or without 1 mM of Ca^2+, before incubation with recombinant mouse PRSS2. In the experiment in which the supernatant of P. clara was used, P. clara cultured overnight was filtered through a sterilization filter unit formed using a PVDF film having a pore size of 0.22 μm.

trypsin = experiment: Faecal trypsin activity of GF mice colonized by human microbiota, isolated strain mixtures or P. clara strains; assay type: in vivo, mouse; conditions: GF+C#5 mice, antibiotic via drinking
Description: Mouse intestinal contents or a mice faecal sample was diluted 500-fold (w/v) with a 0.9% NaCl solution. Human faeces were diluted 200-fold (w/v) with a 0.9% NaCl solution. The diluted solution was vortexed in a mini shaker for 20 minutes at 2,000 rpm, homogenized by pipetting, and then centrifuged at 10,000×g for 15 minutes at 4° C. Subsequently, the supernatant was recovered to measure the trypsin activity by a Trypsin Activity Assay Kit (Colorimetric) for 100 tests (ab102531) according to the manufacturer's protocol. The absorbance at 405 nm was measured in a kinetic mode by using a PerkinElmer 2030 Multilabel Reader.
Human faecal samples were collected at RIKEN and Keio University according to a research protocol approved by the Research Ethics Review Committee. Informed consent was obtained from each subject. A human faecal sample (preserved in 20% (v/v) glycerol) was transferred to an anaerobic chamber, thawed, and then sieved with a 100 μm mesh, transferred to a GF isolator, and orally administered to GF mice by 200 μL/mouse.
For an antibiotic treatment, each solution of 0.5 g/L ampicillin (Nacalai Tesque, Inc.), 0.5 g/L metronidazole (Nacalai Tesque, Inc.), and 1.0 g/L tylosin (Sigma-Aldrich) was produced with autoclaved tap water. The antibiotic solution was given, for 12 days, to mice to which the faecal contents derived from a donor C were orally administered. The antibiotic solution was changed once a week.
The isolated strains except for Phasolactobacterium faecium (3G4) were cultured in an anaerobic chamber at a temperature of 37° C. for 1 to 2 days. Phasolactobacterium faecium was cultured for 2 to 3 days in an Oxoid CM0619 agar plate to which 80 mM sodium succinate was added. The colonies were recovered and resuspended in EGEF. The bacterial density was adjusted based on an OD600 value, and the mixture of the cultured strains was orally administered to GF mice (150 μL/mouse, total bacterial count: about 1 to 2×10^8 CFU).

IgA heavy chain = experiment: Ex vivo incubation of mouse faeces at 37° C. for 48 hours, western blot; conditions: GF faeces mixed with 2-mix+WT faeces, trypsin inhibitor added
Description: Mouse faecal samples were suspended and diluted 50-fold with phosphate buffered saline (PBS) to which a protease inhibitor cocktail (Roche) was added. Subsequently, the suspended sample was centrifuged at 15,000×g for 10 minutes at 4° C., and the supernatant was subjected to western blot. Mouse pancreatic tissue was rapidly frozen in liquid nitrogen. Proteins were extracted by TRIzol Reagent (Thermo Fisher Scientific K.K.), and the final protein concentration was adjusted to 4 μg/μL. For SDS-PAGE and blotting, Novex (registered trademark) NuPAGE (registered trademark) SDS-PAGE Gel system (Thermo Fisher Scientific K.K.) and iBlotTM 2 Dry Blotting System (Thermo Fisher Scientific K.K.) were used according to the manufacturer's instructions. The antibodies used are as follows. A rabbit anti-mouse PRSS2 antibody (Cosmo Bio Co., Ltd.), a rabbit anti-mouse HSP90 antibody (#4877, Cell Signaling Technology, Inc.), a rabbit anti-human PRSS2 antibody (LS-B15726, LSBio), a rabbit anti-human PRSS1 antibody (LS-331381, LSBio), a rabbit anti-mouse TMPRSS2 antibody (LS-C373022, LSBio, against the sequence of the protease domain), a rabbit anti-6-His antibody ([…]-[…], Bethyl Laboratories, Inc.), a goat anti-mouse IgA a chain antibody (HRP) (ab97235, Abcam plc.), a rat anti-mouse κ chain antibody (HRP) (ab99632, Abcam plc.), a rabbit anti-mouse CELA3b antibody (OACD03205, Aviva Systems Biology Corporation), an anti-rabbit IgG antibody (HRP) (#7074, Cell Signaling Technology, Inc.), and a rabbit anti-mouse Reg3 antibody (51153-[…], Sino Biological, Inc.).

recombinant mouse PRSS2 [2] = target: T1, recombinant mouse PRSS2; experiment: Binding of Alexa Fluor 488-labeled rmPRSS2 to the surface of bacteria (confocal microscope)
Description: Recombinant mouse PRSS2 was labeled with Alexa Fluor™ 488 using an Alexa Fluor™ 488 Antibody Labeling Kit (Δ20181, Thermo Fisher Scientific K.K.), and was pretreated with an AEBSF inhibitor (150 μg/mL rmPRSS2 with 20 mM AEBSF).
Mouse PRSS2 labeled with Alexa Fluor™ 488 was incubated in an anaerobic chamber for 20 minutes with bacteria cultured at a final concentration of 5 μg/mL. The mixture was centrifuged, washed once with PBS, and then resuspended in PBS. A Leica TCS SP8 confocal microscope was used for capturing a confocal image.

In the case of `NCCc1ccc(S(=O)(=O)F)cc1` [AEBSF, reference compound], the “trypsin-decomposing ability of P. clara (1C4) after pretreating rmPRSS2 with protease inhibitor” value (recombinant mouse PRSS2 [1]) is reported as “lost”.

For `CC1(C)S[C@@H]2[C@H](NC(=O)[C@H](N)c3ccccc3)C(=O)N2[C@H]1C(=O)O` [Amp, Ampicillin], the faecal trypsin activity (trypsin) was “more decreased”.

`Cc1ncc([N+](=O)[O-])n1CCO` [MNZ, metronidazole] was tested, and the faecal trypsin activity (trypsin) was “no decrease”.

With `Cc1ccc(S(=O)(=O)N[C@@H](CCCCN)C(=O)CCl)cc1` [TLCK, reference compound] the “trypsin-decomposing ability of P. clara (1C4) after pretreating rmPRSS2 with protease inhibitor” value (recombinant mouse PRSS2 [1]) was “lost” and the “decomposition of IgA heavy chain in mixed faeces” value (IgA heavy chain) was “inhibited the decomposition of the IgA heavy chain”.

In the case of `CC[C@H]1OC(=O)C[C@@H](O)[C@H](C)[C@@H](O[C@@H]2O[C@H](C)[C@@H](O[C@H]3C[C@@](C)(O)[C@@H](O)[C@H](C)O3)[C@H](N(C)C)[C@H]2O)[C@@H](CC=O)C[C@@H](C)C(=O)/C=C/C(C)=C/[C@@H]1CO[C@@H]1O[C@H](C)[C@@H](O)[C@@H](OC)[C@H]1OC` [Tyl, tylosin], the faecal trypsin activity (trypsin) is reported as “no decrease”.

In the case of `CC(=O)N[C@@H](CC(C)C)C(=O)N[C@@H](CC(C)C)C(=O)N[C@H](C=O)CCCNC(=N)N` [leupeptin, reference compound], the “trypsin-decomposing ability of P. clara (1C4) after pretreating rmPRSS2 with protease inhibitor” value (recombinant mouse PRSS2 [1]) is reported as “lost”.

In the case of Paraprevotella clara [P237E3b], the “decomposition of rmPRSS2 (western blot)” value (recombinant mouse PRSS2 [1]) is reported as “effect of reducing trypsin”.

For Paraprevotella clara [P322B5], the “decomposition of rmPRSS2 (western blot)” value (recombinant mouse PRSS2 [1]) was “effect of reducing trypsin”.

With “Paraprevotella xylaniphila [P. xylaniphila (JCM 14860) strain]” the “decomposition of rmPRSS2 (western blot)” value (recombinant mouse PRSS2 [1]) was “potent trypsin-reducing ability”.

Prevotella copri [reference compound] was tested, and the “decomposition of rmPRSS2 (western blot)” value (recombinant mouse PRSS2 [1]) was “did not decrease the trypsin activity”.

“Prevotella denticola [reference compound]” was tested, and the “binding of rmPRSS2 to the surface of bacteria” value (recombinant mouse PRSS2 [2]) was “no accumulation of trypsin was observed” and the “decomposition of rmPRSS2 (western blot)” value (recombinant mouse PRSS2 [1]) was “did not decrease the trypsin activity”.

With “Prevotella muris [Prevotella muris strain]” the “decomposition of rmPRSS2 (western blot)” value (recombinant mouse PRSS2 [1]) was “had a trypsin-decomposing activity”.

For Prevotella oulorum [reference compound], the “binding of rmPRSS2 to the surface of bacteria” value (recombinant mouse PRSS2 [2]) was “no accumulation of trypsin was observed” and the “decomposition of rmPRSS2 (western blot)” value (recombinant mouse PRSS2 [1]) was “did not decrease the trypsin activity”.

For “Prevotella rara [Prevotella rara (MSP 0081) strain]”, the “decomposition of rmPRSS2 (western blot)” value (recombinant mouse PRSS2 [1]) was “had a trypsin-decomposing activity”.

In the case of “Prevotella rodentium [Prevotella rodentium strain]”, the “decomposition of rmPRSS2 (western blot)” value (recombinant mouse PRSS2 [1]) is reported as “had a trypsin-decomposing activity”.

“Prevotella stercorea [reference compound]” was tested, and the “decomposition of rmPRSS2 (western blot)” value (recombinant mouse PRSS2 [1]) was “did not decrease the trypsin activity”.

In the case of tunicamycin [reference compound], the “binding of rmPRSS2 to the surface of P. clara treated with sugar chain synthesis inhibitor” value (recombinant mouse PRSS2 [2]) is reported as “no accumulation of trypsin on the surface” and the “decomposition of rmPRSS2 by P. clara pretreated with sugar chain synthesis inhibitor” value (recombinant mouse PRSS2 [1]; P. clara cultured overnight with inhibitor) is reported as “no decomposition of trypsin was observed”.
